Calls of active or inactive are those of the source. The calls are words filed in the database; no cut-off is given here. Residues, ends and D or L forms follow the SMILES beside them. *: point of attachment. Cbz = O=C(OCc1ccccc1)*; CH2F = FC*
Experiments:
MDA-MB-231 [1] = assay: cells; conditions: Homo sapiens, MDA-MB-231, 72 h
Description: Antiproliferative activity against human MDA-MB-231 cells assessed as inhibition of cell proliferation incubated for 72 hrs by MTT assay

BT-549 [2] = assay: cells; conditions: Homo sapiens, BT-549, 72 h
Description: Antiproliferative activity against human BT-549 cells assessed as inhibition of cell proliferation incubated for 72 hrs by MTT assay

BT-549 [3] = assay: Induction of ferroptosis in human BT-549 cells assessed as cell death in presence of Z-VAD-FMK; assay type: functional, cell-based
MDA-MB-231 [4] = assay: Induction of ferroptosis in human MDA-MB-231 cells assessed as cell death in presence of Z-VAD-FMK; assay type: functional, cell-based
BT-549 [5] = assay: Induction of ferroptosis in human BT-549 cells assessed as cell death in presence of ferrostatin-1; assay type: functional, cell-based
MDA-MB-231 [6] = assay: Induction of apoptosis in human MDA-MB-231 cells; assay type: functional, cell-based
MDA-MB-231 [7] = assay: Induction of ferroptosis in human MDA-MB-231 cells assessed as cell death in presence of ferrostatin-1; assay type: functional, cell-based
[8] = Cytotoxicity against human MCF-10A cells assessed as inhibition of cell proliferation incubated for 72 hrs by MTT assay; assay type: toxicity, cell-based
[9] = Selectivity index, ratio of IC50 for antiproliferative activity against human MCF-10A cells assessed as inhibition of cell proliferation to IC50 for antiproliferative activity against human MDA-MB-231 cells assessed as inhibition of cell proliferation; assay type: toxicity, cell-based; conditions: MCF-10A cells and MDA-MB-231 cells, read-out: Ratio IC50

SMILES | IC50 (MDA-MB-231 [1]) | IC50 (BT-549 [2]) | other results
Cc1sc2c(c1C)C(c1ccc(Cl)cc1)=N[C@@H](CC(=O)Nc1ccc(CCNC(=O)CCl)cc1)c1nnc(C)n1-2 | 13700 nM | 17100 nM | –
Cc1sc2c(c1C)C(c1ccc(Cl)cc1)=N[C@@H](CC(=O)NCCOCCOCCNC(=O)CCl)c1nnc(C)n1-2 | 3030 nM | 1720 nM | –
Cc1sc2c(c1C)C(c1ccc(Cl)cc1)=N[C@@H](CC(=O)NCCNC(=O)CCl)c1nnc(C)n1-2 | 3150 nM | 2400 nM | –
Cc1sc2c(c1C)C(c1ccc(Cl)cc1)=N[C@@H](CC(=O)Nc1ccc(CNC(=O)CCl)cc1)c1nnc(C)n1-2 | 1460 nM | 1070 nM | –
CCOC(=O)c1ccc(NC2CCCCC2)c(N)c1 | – | – | Activity (BT-549 [3]): Active; Activity (MDA-MB-231 [4]): Active
Cc1sc2c(c1C)C(c1ccc(Cl)cc1)=N[C@@H](CC(=O)Nc1ccc(NC(=O)CCl)cc1)c1nnc(C)n1-2 | 1400 nM | 970 nM | –
CC(C)[C@H](NC(=O)OCc1ccccc1)C(=O)N[C@@H](C)C(=O)N[C@@H](CC(=O)O)C(=O)CF (Cbz-Val-Ala-Asp-CH2F) | – | – | Activity (BT-549 [5]): Active; Activity (MDA-MB-231 [6]): inactive; Activity (MDA-MB-231 [7]): Active
Cc1sc2c(c1C)C(c1ccc(Cl)cc1)=N[C@@H](CC(=O)NCCN1CCN(C(=O)CCl)CC1)c1nnc(C)n1-2 | 5940 nM | 6990 nM | –
Cc1sc2c(c1C)C(c1ccc(Cl)cc1)=N[C@@H](CC(=O)NCCCCNC(=O)CCl)c1nnc(C)n1-2 | 4640 nM | 5280 nM | –
Cc1sc2c(c1C)C(c1ccc(Cl)cc1)=N[C@@H](CC(=O)NCCc1ccc(NC(=O)CCl)cc1)c1nnc(C)n1-2 | 690 nM | 850 nM | IC50 at 72 h [8]: 1540 nM; selectivity ratio [9]: 2.26
Cc1sc2c(c1C)C(c1ccc(Cl)cc1)=N[C@@H](CC(=O)NCCCCCNC(=O)CCl)c1nnc(C)n1-2 | 5570 nM | 2620 nM | –
Cc1sc2c(c1C)C(c1ccc(Cl)cc1)=N[C@@H](CC(=O)NCC1CCN(C(=O)CCl)CC1)c1nnc(C)n1-2 | 1000 nM | 720 nM | IC50 at 72 h [8]: 1470 nM; selectivity ratio [9]: 1.47
Cc1sc2c(c1C)C(c1ccc(Cl)cc1)=N[C@@H](CC(=O)Nc1ccc(N3CCN(C(=O)CCl)CC3)cc1)c1nnc(C)n1-2 | 5310 nM | 7530 nM | –
Cc1sc2c(c1C)C(c1ccc(Cl)cc1)=N[C@@H](CC(=O)NCCC1CCN(C(=O)CCl)CC1)c1nnc(C)n1-2 | 3490 nM | 3190 nM | –
Cc1sc2c(c1C)C(c1ccc(Cl)cc1)=N[C@@H](CC(=O)NCCOCCNC(=O)CCl)c1nnc(C)n1-2 | 3880 nM | 3400 nM | –
Cc1sc2c(c1C)C(c1ccc(Cl)cc1)=N[C@@H](CC(=O)NCc1ccc(NC(=O)CCl)cc1)c1nnc(C)n1-2 | 1500 nM | 1000 nM | –
Cc1sc2c(c1C)C(c1ccc(Cl)cc1)=N[C@@H](CC(=O)N1CCN(C(=O)CCl)CC1)c1nnc(C)n1-2 | 740 nM | 720 nM | IC50 at 72 h [8]: 1150 nM; selectivity ratio [9]: 1.55
Cc1sc2c(c1C)C(c1ccc(Cl)cc1)=N[C@@H](CC(=O)NCCCNC(=O)CCl)c1nnc(C)n1-2 | 4570 nM | 2270 nM | –
Cc1sc2c(c1C)C(c1ccc(Cl)cc1)=N[C@@H](CC(=O)NCCCCCCNC(=O)CCl)c1nnc(C)n1-2 | 5250 nM | 5390 nM | –
Cc1sc2c(c1C)C(c1ccc(Cl)cc1)=N[C@@H](CC(=O)NCCCN1CCN(C(=O)CCl)CC1)c1nnc(C)n1-2 | 2260 nM | 2460 nM | –
Cc1sc2c(c1C)C(c1ccc(Cl)cc1)=N[C@@H](CC(=O)NCc1ccc(CNC(=O)CCl)cc1)c1nnc(C)n1-2 | 1370 nM | 950 nM | –
